These are literature values, as cited in patent publication US7452858B2, “Treatment of gestational diabetes” (Amylin Pharmaceuticals, Inc., priority 1999, dated 2008).

Read-outs that look alike come from different tables or passages of the source. Where no end group is shown, it is not given here.

One series relates to cloned GLP-1 receptor. Particulars: transfected cells.
The conditions of series [1]: rats, intracerebroventricular injection.
For series [2] the following is noted: mice, peripheral injection.

For the substance “exendin[9-39]: C-terminally truncated exendin peptide, a carboxyamidated molecule, reported antagonist of GLP-1”, the “action at the cloned GLP-1 receptor (cAMP)” value in the series on cloned GLP-1 receptor is on record as “antagonist”.
As for “GLP-1 [7-36]NH2 (HAEGTFTSDVSSYLEGQAAKEFIAWLVKGR-NH2)”, the “effect on food intake” value in series [1] is given as “inhibits food intake”; in series [2] it was “does not inhibit food intake”.
